In US8389500B2, “Fused heterocyclic compounds as ion channel modulators” (Gilead Sciences, Inc., priority 2008, dated 2013):

Biological target: T1, wild-type human cardiac sodium channel, hNav1.5 (late sodium current) (Homo sapiens, UniProt Q14524)
T1 construct: host or cells: HEK293
Experiment: Late INa screening assay (PatchXpress whole cell patch clamp)
Format: cell-based
Settings: HEK293 hNav1.5, late INa generated with 10 μM Tefluthrin (some experiments 50 nM ATX II); for inhibition at 10 µM: 10 μM test compound, read-out: Late INa % blk (10 μM test cmpd)
Description: The late sodium current (Late INa) and peak sodium current (Peak INa) assays are performed on an automated electrophysiology platform, PatchXpress 7000A (MDS Analytical Technologies, Sunnyvale, Calif.), which uses the whole cell patch clamp technique to measure currents through the cell membrane of up to 16 cells at a time. The assay uses an HEK293 (human embryonic kidney) cell line heterologously expressing the wild-type human cardiac sodium channel, hNav1.5, purchased from Millipore (Billerica, Mass.). No beta subunits were coexpressed with the Na channel alpha subunit. Cells are maintained with standard tissue culture procedures and stable channel expression is maintained with 400 μg/ml Geneticin in the culture medium. […] Experiments are carried out at 24-27° C.
For both the Late INa and Peak INa assays, series resistance compensation is set to 50% and whole-cell compensation is performed automatically. […] Currents through open sodium channels are automatically recorded and stored in the DataXpress2 database (MDS Analytical Technologies, Sunnyvale, Calif.). Analysis is performed using DataXpress2 analysis software and data are compiled in Excel.
Compound stocks are routinely made in glass vials to 10 mM in dimethyl sulfoxide (DMSO). In some cases, when compounds are not soluble in DMSO, they are made in 100% ethanol. Stocks are sonicated as necessary. The extracellular solution for screening Late INa is composed of: 140 mM NaCl, 4 mM KCl, 1.8 mM CaCl2, 0.75 mM MgCl2, and 5 mM HEPES with pH adjusted to 7.4 using NaOH. The extracellular solution for screening Peak INa is composed of: 20 mM NaCl, 120 mM N-methyl-D glucamine, 4 mM KCl, 1.8 mM CaCl2, 0.75 mM MgCl2, and 5 mM HEPES with pH adjusted to 7.4 using HCl. The intracellular solution used to perfuse the inside of the cells for both the Late INa and Peak INa assays contains: 120 mM CsF, 20 mM CsCl, 5 mM EGTA, 5 mM HEPES and pH adjusted to 7.4 with CsOH. […] The 0Na extracellular solution used at the end of each experiment for the Late INa and Peak INa assays to measure baseline current contains: 140 mM N-methyl-D-glucamine; 4 mM KCl; 1.8 mM CaCl2; 0.75 mM MgCl2; 5 mM HEPES and pH was adjusted to 7.4 with HCl.
For the Late INa assay, sodium channels are activated every 10 seconds (0.1 Hz) by depolarizing the cell membrane to −20 mV for 250 milliseconds (ms) from a holding potential of −120 mV. In response to a −20 mV voltage step, typical Nav1.5 sodium currents activate rapidly to a peak negative current and then inactivate nearly completely within […].
All compounds are tested to determine their activity in blocking the late sodium current. Late INa current is generated by adding 10 μM Tefluthrin (pyrethroid) to the extracellular solution while recording Na currents For some experiments, 50 nM ATX II (sea anemone toxin), another late Na activator, was used to generate the late component. […] After establishing the whole cell recording configuration, late INa activators are added to each well 4 times over a 16-17 minute period so that the late component of the Na current reaches a stable value. […] Measurements are made at the end of exposure to the third compound addition and values are normalized to the current level when all Na^+ is removed from the extracellular solution after two additions of ONa-ECF. Results are reported as percent block of late INa

T1 sequence (Q14524 whole entry): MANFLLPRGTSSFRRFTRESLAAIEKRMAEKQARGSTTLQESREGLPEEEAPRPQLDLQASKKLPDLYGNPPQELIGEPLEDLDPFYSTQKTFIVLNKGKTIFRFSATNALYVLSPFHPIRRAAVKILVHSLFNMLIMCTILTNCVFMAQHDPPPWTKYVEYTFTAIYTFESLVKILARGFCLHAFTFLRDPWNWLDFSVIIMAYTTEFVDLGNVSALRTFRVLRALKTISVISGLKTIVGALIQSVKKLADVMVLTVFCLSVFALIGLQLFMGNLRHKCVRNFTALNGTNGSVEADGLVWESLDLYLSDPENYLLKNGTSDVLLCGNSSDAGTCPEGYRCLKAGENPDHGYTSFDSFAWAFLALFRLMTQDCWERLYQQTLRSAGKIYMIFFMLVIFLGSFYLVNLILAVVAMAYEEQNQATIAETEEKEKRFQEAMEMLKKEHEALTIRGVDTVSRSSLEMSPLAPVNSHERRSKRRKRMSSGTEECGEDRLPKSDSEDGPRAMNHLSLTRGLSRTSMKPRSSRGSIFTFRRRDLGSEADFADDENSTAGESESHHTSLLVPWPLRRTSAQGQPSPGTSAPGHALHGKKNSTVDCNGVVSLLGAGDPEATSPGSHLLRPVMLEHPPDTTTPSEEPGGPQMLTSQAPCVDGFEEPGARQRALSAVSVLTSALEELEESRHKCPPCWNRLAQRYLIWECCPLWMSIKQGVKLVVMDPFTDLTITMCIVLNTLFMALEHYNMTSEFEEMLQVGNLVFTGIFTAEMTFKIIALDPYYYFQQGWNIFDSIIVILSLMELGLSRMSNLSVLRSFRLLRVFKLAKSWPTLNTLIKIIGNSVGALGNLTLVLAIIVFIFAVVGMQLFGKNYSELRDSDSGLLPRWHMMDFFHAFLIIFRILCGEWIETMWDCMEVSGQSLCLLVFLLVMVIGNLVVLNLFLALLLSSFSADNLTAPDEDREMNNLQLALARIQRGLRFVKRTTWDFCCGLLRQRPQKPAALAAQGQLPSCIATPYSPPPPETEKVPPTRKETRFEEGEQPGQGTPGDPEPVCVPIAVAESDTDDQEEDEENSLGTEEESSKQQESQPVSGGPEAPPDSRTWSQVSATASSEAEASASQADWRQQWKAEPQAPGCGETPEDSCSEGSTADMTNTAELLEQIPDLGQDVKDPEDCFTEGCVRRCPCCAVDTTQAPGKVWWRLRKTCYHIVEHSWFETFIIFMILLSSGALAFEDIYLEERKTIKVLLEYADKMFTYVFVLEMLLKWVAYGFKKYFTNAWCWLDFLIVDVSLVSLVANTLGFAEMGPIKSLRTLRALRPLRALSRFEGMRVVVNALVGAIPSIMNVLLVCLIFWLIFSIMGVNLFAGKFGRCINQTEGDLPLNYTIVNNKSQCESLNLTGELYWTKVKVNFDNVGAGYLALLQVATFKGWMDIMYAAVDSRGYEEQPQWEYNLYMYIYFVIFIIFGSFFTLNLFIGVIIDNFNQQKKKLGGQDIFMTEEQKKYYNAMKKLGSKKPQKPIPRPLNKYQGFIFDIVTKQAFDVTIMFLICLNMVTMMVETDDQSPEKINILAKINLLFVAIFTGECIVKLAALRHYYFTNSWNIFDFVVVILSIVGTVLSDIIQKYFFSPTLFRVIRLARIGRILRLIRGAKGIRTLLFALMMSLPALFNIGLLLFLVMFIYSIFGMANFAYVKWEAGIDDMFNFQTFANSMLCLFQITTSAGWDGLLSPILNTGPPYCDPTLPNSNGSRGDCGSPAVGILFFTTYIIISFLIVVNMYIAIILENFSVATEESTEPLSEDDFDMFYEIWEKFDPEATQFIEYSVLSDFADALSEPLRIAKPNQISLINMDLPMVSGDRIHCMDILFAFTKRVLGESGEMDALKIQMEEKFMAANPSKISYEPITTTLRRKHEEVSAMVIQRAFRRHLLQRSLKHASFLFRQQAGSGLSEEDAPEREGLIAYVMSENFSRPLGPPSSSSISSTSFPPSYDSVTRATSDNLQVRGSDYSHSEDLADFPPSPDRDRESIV

| SMILES | inhibition at 10 µM [%] | inhibition at 1 µM (1 μM test compound, read-out: Late INa % blk (1 μM test cmpd)) [%] |
| --- | --- | --- |
| CS(=O)(=O)Nc1ccc(-c2ccc(F)c(F)c2)cc1 [PT-002, N-(3′,4′-difluorobiphenyl-4-yl)methanesulfonamide] | 21.8 |  |
| COc1cc(NS(C)(=O)=O)ccc1-c1ccc(C(F)(F)F)cc1 [PT-004, N-[2-methoxy-4′-(trifluoromethyl)biphenyl-4-yl]methanesulfonamide] | 42.8 |  |
| CS(=O)(=O)Nc1ccc(-c2ccc(Cl)c(F)c2)cc1 [PT-005, N-(4′-chloro-3′-fluorobiphenyl-4-yl)methanesulfonamide] | 20.5 |  |
| CS(=O)(=O)Nc1ccc(-c2ccc(C(F)(F)F)cc2)cc1 [PT-006, N-[4′-(trifluoromethyl)biphenyl-4-yl]methanesulfonamide] | 22.7 |  |
| CS(=O)(=O)Nc1ccc(-c2ccc(F)c(Cl)c2)cc1 [PT-007, N-(3′-chloro-4′-fluorobiphenyl-4-yl)methanesulfonamide] | 34.9 |  |
| CS(=O)(=O)Nc1ccc(-c2cccc(OC(F)(F)F)c2)cc1 [PT-008, N-[3′-(trifluoromethoxy)biphenyl-4-yl]methanesulfonamide] | 39.4 |  |
| COc1cc(NS(C)(=O)=O)ccc1-c1ccc(OC(F)(F)F)cc1 [PT-009, N-[2-methoxy-4′-(trifluoromethoxy)biphenyl-4-yl]methanesulfonamide] | 20.9 |  |
| COc1cc(NS(C)(=O)=O)ccc1-c1cccc(OC(F)(F)F)c1 [PT-010, N-[2-methoxy-3′-(trifluoromethoxy)biphenyl-4-yl]methanesulfonamide] | 48.2 |  |
| COc1cc(NS(C)(=O)=O)ccc1-c1ccccc1OC(F)(F)F [PT-011, N-[2-methoxy-2′-(trifluoromethoxy)biphenyl-4-yl]methanesulfonamide] | 47.6 |  |
| CS(=O)(=O)Nc1ccc(-c2ccc(Cl)c(F)c2)c(C(F)(F)F)c1 [PT-012, N-[4′-chloro-3′-fluoro-2-(trifluoromethyl)biphenyl-4-yl]methanesulfonamide] | 52 |  |
| CS(=O)(=O)Nc1ccc(-c2ccc(OC(F)(F)F)cc2)c(C(F)(F)F)c1 [PT-014, N-[4′-(trifluoromethoxy)-2-(trifluoromethyl)biphenyl-4-yl]methanesulfonamide] | 50.5 |  |
| CS(=O)(=O)Nc1ccc(-c2cccc(OC(F)(F)F)c2)c(C(F)(F)F)c1 [PT-015, N-[3′-(trifluoromethoxy)-2-(trifluoromethyl)biphenyl-4-yl]methanesulfonamide] | 60.8 |  |
| CS(=O)(=O)Nc1ccc(-c2ccccc2OC(F)(F)F)c(C(F)(F)F)c1 [PT-016, N-[2′-(trifluoromethoxy)-2-(trifluoromethyl)biphenyl-4-yl]methanesulfonamide] | 45.8 |  |
| CCOC(=O)CN(c1ccc(-c2ccc(Cl)c(F)c2)c(OC)c1)S(C)(=O)=O [PT-019, ethyl N-(4′-chloro-3′-fluoro-2-methoxybiphenyl-4-yl)-N-(methylsulfonyl)glycinate] | 55 |  |
| CCOC(=O)CN(c1ccc(-c2cccc(OC(F)(F)F)c2)c(OC)c1)S(C)(=O)=O [PT-020, ethyl N-[2-methoxy-3′-(trifluoromethoxy)biphenyl-4-yl]-N-(methylsulfonyl)glycinate] | 52.9 |  |
| CS(=O)(=O)Nc1ccc(-c2cccc(OC(F)(F)F)c2)c(Cl)c1 [PT-021, N-[2-chloro-3′-(trifluoromethoxy)biphenyl-4-yl]methanesulfonamide] | 77.5 | 34 |
| CS(=O)(=O)Nc1ccc(-c2ccc(F)c(F)c2)c(Cl)c1 [PT-023, N-(2-chloro-3′,4′-difluorobiphenyl-4-yl)methanesulfonamide] | 48.2 |  |
| CS(=O)(=O)Nc1ccc(-c2ccc(F)cc2F)c(Cl)c1 [PT-024, N-(2-chloro-2′,4′-difluorobiphenyl-4-yl)methanesulfonamide] | 43.5 |  |
| CCOC(=O)CN(c1ccc(-c2ccc(Cl)c(F)c2)c(Cl)c1)S(C)(=O)=O [PT-025, ethyl N-(2,4′-dichloro-3′-fluorobiphenyl-4-yl)-N-(methylsulfonyl)glycinate] | 60 |  |
